Measurements taken from the NIST ThermoML archive (doi:10.1016/j.jct.2017.05.022).
± gives the expanded uncertainty stated by the source.

Experiments:
[1] = Molar enthalpy of transition or fusion; details: Crystal; DSC
[2] = Solid-liquid equilibrium temperature; details: Crystal, DTA
[3] = for specific volume / mass density: 101.33 kPa; for specific volume: X-ray diffraction; for mass density: Liquid, Vibrating tube method

SMILES: O=C(OCCN1CCOCC1)c1cccnc1Nc1cccc(C(F)(F)F)c1
- Molar enthalpy of transition or fusion [1]: 8.45 ± 0.359 kcal/mol
- Solid-liquid equilibrium temperature ([2]; 100 kPa): 348.1 ± 0.8 K
- Solid-liquid equilibrium temperature ([2]; 32000 kPa): 358.5 ± 3.1 K
- Solid-liquid equilibrium temperature ([2]; 58000 kPa): 366.9 ± 3.1 K
- Solid-liquid equilibrium temperature ([2]; 79000 kPa): 374.5 ± 3.1 K
- Solid-liquid equilibrium temperature ([2]; 115000 kPa): 382.7 ± 3.1 K
- Solid-liquid equilibrium temperature ([2]; 140000 kPa): 390.7 ± 3.1 K
- Solid-liquid equilibrium temperature ([2]; 155000 kPa): 396 ± 3.1 K
- Solid-liquid equilibrium temperature ([2]; 201000 kPa): 403.7 ± 3.1 K
- Solid-liquid equilibrium temperature ([2]; 244000 kPa): 421.5 ± 3.1 K
- specific volume ([3]; 100 K, Crystal): 0.0006857 ± 1e-06 m3/kg
- specific volume ([3]; 125 K, Crystal): 0.0006872 ± 1e-06 m3/kg
- specific volume ([3]; 150 K, Crystal): 0.0006912 ± 1.1e-06 m3/kg
- specific volume ([3]; 175 K, Crystal): 0.000693 ± 1.1e-06 m3/kg
- specific volume ([3]; 200 K, Crystal): 0.0006968 ± 1.1e-06 m3/kg
- specific volume ([3]; 225 K, Crystal): 0.0006995 ± 1.1e-06 m3/kg
- specific volume ([3]; 250 K, Crystal): 0.0007035 ± 1.1e-06 m3/kg
- specific volume ([3]; 273 K, Crystal): 0.0007063 ± 1.1e-06 m3/kg
- specific volume ([3]; 298.2 K, Crystal): 0.0007115 ± 1.1e-06 m3/kg
- specific volume ([3]; 315 K, Crystal): 0.0007135 ± 1.1e-06 m3/kg
- specific volume ([3]; 320 K, Crystal): 0.0007145 ± 1.1e-06 m3/kg
- mass density ([3]; 323.15 K): 1262.9 ± 0.5 kg/m3
- specific volume ([3]; 325 K, Crystal): 0.0007147 ± 1.1e-06 m3/kg
- mass density ([3]; 325.65 K): 1260.6 ± 0.5 kg/m3
- mass density ([3]; 328.15 K): 1258.4 ± 0.5 kg/m3
- specific volume ([3]; 330 K, Crystal): 0.0007156 ± 1.1e-06 m3/kg
- mass density ([3]; 330.65 K): 1256.2 ± 0.5 kg/m3
- specific volume ([3]; 332 K, Crystal): 0.0007166 ± 1.1e-06 m3/kg
- mass density ([3]; 333.15 K): 1254 ± 0.5 kg/m3
- specific volume ([3]; 335 K, Crystal): 0.0007171 ± 1.1e-06 m3/kg
- mass density ([3]; 335.15 K): 1252.2 ± 0.5 kg/m3
- specific volume ([3]; 337 K, Crystal): 0.0007171 ± 1.1e-06 m3/kg
- mass density ([3]; 337.65 K): 1249.9 ± 0.5 kg/m3
- specific volume ([3]; 340 K, Crystal): 0.0007177 ± 1.1e-06 m3/kg
- mass density ([3]; 340.15 K): 1247.7 ± 0.5 kg/m3
- specific volume ([3]; 342 K, Crystal): 0.0007184 ± 1.1e-06 m3/kg
- mass density ([3]; 342.65 K): 1245.4 ± 0.5 kg/m3
- mass density ([3]; 345.15 K): 1243.2 ± 0.4 kg/m3
- specific volume ([3]; 347 K, Crystal): 0.0007192 ± 1.1e-06 m3/kg
- mass density ([3]; 347.65 K): 1240.9 ± 0.4 kg/m3
- mass density ([3]; 350.15 K): 1238.7 ± 0.4 kg/m3
- mass density ([3]; 352.65 K): 1236.4 ± 0.4 kg/m3
- mass density ([3]; 355.16 K): 1234.2 ± 0.4 kg/m3
- mass density ([3]; 357.65 K): 1231.9 ± 0.4 kg/m3
- mass density ([3]; 360.15 K): 1229.7 ± 0.4 kg/m3
- mass density ([3]; 362.65 K): 1227.4 ± 0.4 kg/m3
- Normal melting temperature ([3]; Crystal, DTA): 75.0 ± 0.9 °C
- Glass transition temperature ([3]; Glass, DSC): -23.7 ± 1.2 °C
